Data published in patent US5252495A, “Immunoassay for physostigmine” (priority 1992, dated 1993).

Tests used:
[1] = target: Antibody from Diazo-coupled Immunogen; assay: RIA cross-reactivity: competition with labeled physostigmine for antibody from diazo-coupled immunogen; assay type: binding, New Zealand white rabbits; conditions: 1:150, max 1000 ng tested
Description: (§1) Antibodies to the physostigmine-BSA immunogen were produced by injecting male New Zealand white rabbits with immunogens formed by either method. Prior to injection, the immunogen was emulsified with an equal volume of complete Freund's adjuvant, purchased from Difco Laboratories of Detroit, Mich. The initial immunization consisted of 0.8 mg of protein injected intracutaneously in multiple dorsal sites of the rabbits. Booster injections containing 0.8 mg of immunogen and incomplete Freund's adjuvant were administered every two months for the next six months. Antisera was collected one week after each booster injection from the central ear vein. The blood was allowed to clot at room temperature and then centrifuged at 1500×g for 15 minutes. The separated serum was stored frozen at -20° C. until assayed for the presence of physostigmine antibody.
In the assay procedure ^3 H-Physostigmine having specificity of 19.0 Ci/mmole and purchased from the Amersham Corp. of Arlington Heights, Ill., was used as tracer. The dilution of tracer (5000 dpm), antibody (1:150) and physostigmine standards (100-10,000 pg) were made using 0.01M phosphate buffer containing 150 mM sodium chloride with a pH of 7.4. […] Both standard and sample tubes were always analyzed in duplicate. The assay was carried out according to the protocol shown in Table 1 with the reagents were added to the assay tubes in the order shown.
(§2) According to the protocol for the RIA of the present invention, after the addition of antisera, the contents of the tubes were mixed and incubated for 3 hours at 4° C. The antigen which bound to the antibody was separated by adding saturated ammonium sulfate and centrifuging at 2500×g for 15 minutes. After aspiration of the supernatant, the precipitate was washed one time with 50% saturated ammonium sulfate; then the mixture was centrifuged and the supernatent removed. The precipitate was dissolved in 1.0 ml of distilled water, and the solution was transferred to a scintillation vial containing 10.0 ml of acquasol 2.
(§3) The radioactivity which was bound to the antibody was determined in counts per minute with a Beckman LS-3133P Liquid Scintillation Counter. […] The concentration of physostigmine is plotted on the horizontal axis, while the percent inhibition of binding radioactively labeled is plotted on the vertical axis. […] Concentrations of physostigmine in unknown samples were determined according to conventional calculations from the standard curve.
(§4) Competition of the compounds with labeled physostigmine (5000 dpm) for antibody binding sites was determined arbitrarily at 50% inhibition of the physostigmine on the standard curve. Each compound was tested for cross-reactivity with the antibody. The maximum concentration of each compound tested was 1000 ng.

[2] = target: Antibody from Mannich Immunogen; assay: RIA cross-reactivity: competition with labeled physostigmine for antibody from Mannich immunogen; assay type: binding, New Zealand white rabbits; conditions: 1:100, max 1000 ng tested
Description: as §1
In the assay procedure ^3 H-Physostigmine having specificity of 19.0 Ci/mmole and purchased from the Amersham Corp. of Arlington Heights, Ill., was used as tracer. […] Both standard and sample tubes were always analyzed in duplicate. The assay was carried out according to the protocol shown in Table 1 with the reagents were added to the assay tubes in the order shown.
as §2, §3, §4

[3] = Stability of physostigmine in rat plasma; assay type: in vitro ADME; conditions: for Amount Recovered: rat plasma
Description: To show the stability of physostigmine in biological fluids, physostigmine was added to 2 portions of rat plasma. One half of the plasma was kept at room temperature and the other was kept at 4° C. Aliquots which originally contained 3.6 ng of physostigmine were assayed at various times. […] Since the samples were cooled and processed at 4° C., corrections for loss of physostigmine were unnecessary.

[4] = cited from earlier work
[5] = cited from earlier work; remark: listed apart in the source
[6] = particularly in plasma and blood; cited from earlier work

CNC(=O)Oc1ccc2c(c1)[C@]1(C)CCN(C)[C@@H]1N2C [Physostigmine, physostigmine]
IC50 (50% inhibition of binding of 3H-physostigmine) [1]: 1.35 ng
IC50 (50% inhibition of binding of 3H-physostigmine) [2]: 1.35 ng
Amount Recovered ([3]; 4° C., 0 min, originally 3.6 ng): 3.6 ng
Amount Recovered ([3]; 4° C., 15 min): 3.4 ng
Amount Recovered ([3]; 4° C., 30 min): 3.6 ng
Amount Recovered ([3]; 4° C., 1 hr): 3.8 ng
Amount Recovered ([3]; 4° C., 2 hr): 3.6 ng
Amount Recovered ([3]; 4° C., 3 hr): 3.6 ng
Amount Recovered ([3]; 4° C., 4 hr): 3.6 ng
Amount Recovered ([3]; 23° C., 0 min, originally 3.6 ng): 3.6 ng
Amount Recovered ([3]; 23° C., 15 min): 3.3 ng
Amount Recovered ([3]; 23° C., 30 min): 3.1 ng
Amount Recovered ([3]; 23° C., 1 hr): 2.7 ng
Amount Recovered ([3]; 23° C., 2 hr): 2.8 ng
Amount Recovered ([3]; 23° C., 3 hr): 2.8 ng
Amount Recovered ([3]; 23° C., 4 hr): 2.8 ng
remaining at 3 h ([3]; rat, plasma, kept at 4° C. for 3 hr, read-out: physostigmine recovered from plasma samples): > 95%
remaining at 0.25 h ([3]; rat, plasma, processed within 15 min. at room temperature, read-out: physostigmine recovered from plasma samples): > 95%
lipid solubility [4]: high degree of lipid solubility
solubility in biological fluids [4]: soluble in biological fluids
adverse muscarinic effects ([5]; certain patients): nausea, vomiting, diarrhea, miosis, excessive salivation and sweating, abdominal cramps, bradycardia, bronchial secretion and bronchospasm
toxic level relative to therapeutic level ([5]; clinical use): toxic at levels very close to those which produce therapeutic results
effect of substantial over administration ([5]; overdose): cholinergic crisis leading to death
other side effects ([5]; thrombophlebitis if administered intravenously): generalized weakness, muscle cramps, fasciculation, hypotension, and, if administered intraveneously, thrombophlebitis
in vitro hydrolysis in biological solutions [6]: extensive in vitro hydrolysis
